Results from a melting point compilation (Tetko et al.).

Row | melting point | Structure (SMILES)
1 | 109 to 111 °C | CN1CCN(S(=O)(=O)c2cccnc2NN)CC1
2 | 119 to 121 °C | O=C1CNc2ccccc2N1
3 | 100 to 102 °C | COC(=O)c1sc(-c2cccc(Cl)c2)cc1N
4 | 89 to 91 °C | CC(=O)CC(=O)Nc1ccc(C)cc1Cl
5 | 230 to 232 °C | O=C(CCl)Nc1ccc2[nH]c(=O)[nH]c2c1
6 | 79 to 81 °C | COc1ccc(NC(=O)OCC(F)(F)F)cc1
7 | 134 to 136 °C | Nc1ccc(CN2C(=O)CSC2=O)cc1
8 | 272 to 274 °C | COc1ccc(-c2ccc(C#N)c(=O)[nH]2)cc1OC
9 | 39 to 41 °C | CCOc1ccc(C(=O)CC)cc1OCC
10 | 118 to 120 °C | CCOc1ccc(C2(C(=O)O)CC2)cc1
11 | 255 to 257 °C | O=C(O)C1(Cc2nc3ccccc3[nH]2)CCCC1
12 | 182 to 184 °C | CN(C)c1cccc(Oc2ccc(C(N)=S)cc2)c1
13 | 102 to 104 °C | Cc1cc(NC(=O)OC(C)(C)C)sc1C
14 | 62 to 64 °C | CCCNc1ccc(Cl)cc1N
15 | 232 to 234 °C | O=C(O)c1nn(-c2ccc(Br)cc2)c2c1CCCC2
16 | 112 to 114 °C | COc1ccc(NC(=O)CSCC(=O)O)cc1
17 | 66 to 68 °C | N#CC(Cl)(Cl)c1nc2ccccc2s1
18 | 91 to 93 °C | CCOC(=O)c1ccn(C)c(=O)c1
19 | 118 to 120 °C | COC(C)C(N)=NO (stereo not given)
20 | 145 to 147 °C | O=C(O)CNC(=O)C12CC3CC(CC(C3)C1)C2
21 | 126 to 128 °C | CS(=O)(=O)Nc1cccc(CN)c1
22 | 207 to 209 °C | Nn1c(S)nnc1-c1ccco1
23 | 97 to 99 °C | Nc1ccccc1-c1nnnn1C1CC1
24 | 143 to 145 °C | N#CCC(=O)c1ccc(Br)s1

Row | melting point | Structure (SMILES)
25 | 73 to 75 °C | CCCc1ccc(C(=O)COc2ccc(C=O)cc2OC)cc1
26 | 132 to 134 °C | Cc1cc(Oc2ncccn2)ccc1N
27 | 275 to 277 °C | Cc1ccc2nc(S)n(C)c(=O)c2c1
28 | 183 to 185 °C | Nc1nnn(Cc2ccccc2)n1
29 | 321 to 323 °C | O=C1COc2cc(C(=O)O)ccc2N1
30 | 52 to 54 °C | CN(C)C(=O)c1cccc(Br)c1
31 | 177 to 179 °C | N#Cc1ncc(C(=O)O)cc1Br
32 | 108 to 110 °C | CC(Cl)C(=O)Nc1cccc(C#N)c1 (stereo not given)
33 | 72 to 74 °C | O=S(=O)(Cl)C1=Cc2ccc(OC(F)F)cc2CC1
34 | 39 to 41 °C | CC(Oc1ccc(F)c(F)c1)C(=O)O (stereo not given)
35 | 172 to 174 °C | Nc1nc2cc(Br)ccc2o1
36 | 134 to 136 °C | Nc1nc2c(ccc3ccccc32)s1
37 | 136 to 138 °C | CC1CCCN(Cc2csc(N)n2)C1 (stereo not given)
38 | 169 to 171 °C | COc1ccc(S(N)(=O)=O)cc1NC(=O)CCl
39 | 99 to 101 °C | O=C1C(Br)CCN1c1ccc(F)c(Cl)c1 (stereo not given)
40 | 44 to 46 °C | CCC(=O)c1cnn(C)c1
41 | 125 to 127 °C | NNC(=O)c1cc(-c2ccccc2)on1
42 | 169 to 171 °C | Cc1cc(C(=O)O)cc([N+](=O)[O-])c1
43 | 89 to 91 °C | Cc1nc(Cl)c2c3c(sc2n1)CC(C)CC3 (stereo not given)
44 | 239 to 241 °C | COc1ccc(-c2ncc(C(=O)O)s2)cc1
45 | 123 to 125 °C | Sc1nnnn1C1CCCC1
46 | 128 to 130 °C | Cc1ccc(C)c(-n2ccnc2SCC(=O)O)c1
47 | 259 to 261 °C | Nc1nc2ccc(S(N)(=O)=O)cc2s1
48 | 150 to 152 °C | CC1CCCC(C)N1S(=O)(=O)c1ccsc1C(=O)O (stereo not given)

Row | melting point | Structure (SMILES)
49 | 51 to 53 °C | CCS(=O)(=O)c1ccc(CN)cc1
50 | 169 to 171 °C | Nc1sc2c(c1C(=O)O)CCSC2
51 | 109 to 111 °C | NC(C(=O)O)(c1cccc(Cl)c1)C(F)(F)F (stereo not given)
52 | 129 to 131 °C | Clc1cc(NC2CCOc3ccccc32)ncn1 (stereo not given)
53 | 131 to 133 °C | CC(C)(C)OC(=O)N1CCC(C(=O)O)(C(=O)O)C1
54 | 143 to 145 °C | COc1cc(N2CC(C(=O)O)CC2=O)cc(OC)c1OC (stereo not given)
55 | 211 to 213 °C | Oc1cc2c(nn1)CCNC2
56 | 48 to 52 °C | CCCCNS(=O)(=O)c1ccc(N)c(N)c1
57 | 129 to 131 °C | CS(=O)(=O)Nc1ccc(N)c(Cl)c1
58 | 129 to 131 °C | Cc1nn(C)c2c1N(C(=O)OC(C)(C)C)CC(C)N2 (stereo not given)
59 | 94 to 96 °C | CN(C)S(N)(=O)=O
60 | 245 to 247 °C | Cc1ccccc1-n1ccnc1S
61 | 61 to 63 °C | Cc1ccc(C)n1-c1ccc(Br)cc1
62 | 163 to 165 °C | CC(=O)NC(C)(C)C(N)=NO
63 | 144 to 146 °C | CC(C)(C)C(=O)NCCc1ccc(S(N)(=O)=O)s1
64 | 93 to 97 °C | Cc1cccc(Oc2ccc(Cl)cc2N)c1
65 | 143 to 145 °C | CC1CCC(N2CC(C(=O)O)CC2=O)CC1 (stereo not given)
66 | 126 to 128 °C | Cc1ccc(S(N)(=O)=O)cc1N(C)C
67 | 179 to 181 °C | Cc1n[nH]c(-c2ccc(N)cc2)n1
68 | 193 to 195 °C | O=c1[nH]ccc2occc12
69 | 59 to 61 °C | NCc1nncn1-c1ccccc1
70 | 254 to 256 °C | O=C(O)c1ccc(-c2nc3ccccc3s2)s1
71 | 76 to 78 °C | Cc1ccnc(Br)c1N
72 | 78 to 80 °C | COc1c(F)c(F)c(N)c(F)c1F

Row | melting point | Structure (SMILES)
73 | 33 to 42 °C | O=S(=O)(Cl)c1ccc2c(c1)CCC2
74 | 117 to 119 °C | O=C(CCl)Nc1ccc(Oc2cccc(Cl)c2)cc1
75 | 111 to 113 °C | N#CCOc1ccc(CC(=O)O)cc1
76 | 148 to 150 °C | O=C(O)CCN1C(=O)Cc2ccccc2C1=O
77 | 239 to 241 °C | NC(=O)c1cn(CC(=O)O)c2ccccc12
78 | 111 to 113 °C | CC(C)(C)OC(=O)NC(CC(=O)O)C1CC1 (stereo not given)
79 | 156 to 158 °C | Clc1nnc(-c2ccccc2)c2ccccc12
80 | 237 to 239 °C | O=C(O)c1cccn2c(I)cnc12
81 | 119 to 121 °C | CN(C)c1cc(C#N)c2ccccc2n1
82 | 199 to 201 °C | N#CCn1cc(C(=O)O)c2ccccc21
83 | 127 to 129 °C | CC(C)n1c(C(=O)O)cc(Br)c1Br
84 | 171 to 173 °C | Cn1c(=O)c2cc(S(=O)(=O)Cl)cnc2n(C)c1=O
85 | 123 to 133 °C | COc1ccc(OCc2cc(C(=O)O)c(C)o2)cc1
86 | 159 to 161 °C | Nc1cc(F)c(-n2ccnc2)c(F)c1
87 | 155 to 157 °C | CS(=O)(=O)N1CCc2c(N)cccc2C1
88 | 190 to 192 °C | O=C(O)c1ccccc1-c1nc2ccccc2s1
89 | 89 to 91 °C | CC(C)c1ccc2c(c1)[C@@H](O)CCC2
90 | 63 to 65 °C | O=C1CCCC1c1ccc(Cl)c(Cl)c1 (stereo not given)
91 | 125 to 129 °C | CN(C)S(=O)(=O)c1cc(N)ccc1Cl
92 | 85 to 89 °C | CC(=O)NCCc1ccc(C(=O)C(C)Cl)cc1 (stereo not given)
93 | 145 to 147 °C | O=C(O)c1cccnc1SCC1CCCCC1
94 | 124 to 126 °C | CN(C)C1CCN(c2ccc(N)cc2F)CC1
95 | 231 to 233 °C | CCOc1ccc(NS(=O)(=O)c2ccc(C)c(C(=O)O)c2)cc1
96 | 61 to 63 °C | CCc1cc(C#N)c(N)s1

Row | melting point | Structure (SMILES)
97 | 81 to 83 °C | Cc1cc(Br)ccc1N1CC(C(=O)O)CC1=O (stereo not given)
98 | 84 to 86 °C | COc1cccc(C(=O)CC#N)c1
99 | 126 to 128 °C | CS(=O)(=O)c1ccc(F)c(NC(=O)CCl)c1
100 | 199 to 201 °C | COc1cc(S(=O)(=O)Nc2ccc3c[nH]nc3c2)ccc1Br
101 | 144 to 146 °C | CC(=O)N1CCc2ccc(S(=O)(=O)Cl)cc21
102 | 163 to 165 °C | Cc1c(C(=O)O)c(=O)oc2ccccc12
103 | 89 to 91 °C | O[C@@H]1CCCOc2ccccc21
104 | 169 to 171 °C | Cc1ccn(-c2ccc(Cl)nn2)n1
105 | 173 to 175 °C | O=C(O)C1CSC2(c3ccccc3)CCC(=O)N12 (stereo not given)
106 | 89 to 91 °C | NCc1cccc(OCC(N)=O)c1
107 | 56 to 58 °C | O=C1CCCc2ccc(F)cc21
108 | 179 to 181 °C | Cc1nsc2ncc(C(=O)O)cc12
109 | 174 to 176 °C | Cc1cc(C(=O)O)ccc1N1CCCS1(=O)=O
110 | 57 to 59 °C | Clc1ccc(Cl)c(OCCBr)c1
111 | 209 to 211 °C | Nc1ncc(-c2ccc(F)cc2)s1
112 | 56 to 58 °C | COC(=O)c1cc(S(=O)(=O)Cl)cc(F)c1F
113 | 140 to 142 °C | CNC(=O)c1cccc(C#N)c1
114 | 180 to 182 °C | Cc1ccc(-c2nnc(N)s2)c(C)c1
115 | 194 to 196 °C | O=C(O)c1ccnc(Cl)c1F
116 | 87 to 89 °C | Nc1cccc(OCc2ccc(Cl)cc2)c1
117 | 74 to 76 °C | CC(=O)c1cccc(S(=O)(=O)N(C)C)c1
118 | 191 to 193 °C | CCc1cc(C(=O)O)n[nH]1
119 | 92 to 94 °C | CC(C)Cn1ncnc1CO
120 | 99 to 101 °C | Nc1ccc(-c2ncno2)cc1

Row | melting point | Structure (SMILES)
121 | 67 to 69 °C | O=C(c1cccnc1Cl)N1CCCCC1
122 | 108 to 110 °C | O=S1(=O)CCCN1c1ccc(Br)cc1
123 | 184 to 186 °C | Brc1cnc2ncnn2c1
124 | 274 to 276 °C | CN1CCN(C(=O)c2ccccc2C(=O)O)CC1
125 | 192 to 194 °C | N#CCn1c(C(=O)O)cc2ccccc21
126 | 307 to 309 °C | Cc1nnc2ccc(C(=O)O)cn12
127 | 171 to 173 °C | O=C(CCCl)Nc1ccc([N+](=O)[O-])cc1
128 | 79 to 81 °C | CN(CCC(N)=S)C(=O)OC(C)(C)C
129 | 244 to 246 °C | COc1ccccc1-n1cc(-c2ccc(Cl)cc2Cl)nc1S
130 | 63 to 65 °C | O=S(=O)(CCO)c1ccc(Br)cc1
131 | 179 to 181 °C | Cc1cc(C)n(Cc2ccc(C(=O)O)cc2)n1
132 | 71 to 73 °C | O=C(O)CSCc1ccc(F)cc1
133 | 74 to 76 °C | NCC(O)c1ccc(Cl)s1 (stereo not given)
134 | 178 to 180 °C | N=C1N=C2C=CC(Br)=CN2Cc2ccccc21
135 | 61 to 63 °C | CC(CSc1ccc(F)cc1)C(=O)O (stereo not given)
136 | 132 to 134 °C | CC1CNc2cccnc2O1 (stereo not given)
137 | 97 to 99 °C | CCOC(=O)c1ccn(-c2ccc(N)cc2)n1
138 | 277 to 279 °C | NS(=O)(=O)c1ccc(N2CCOCC2)c(C(=O)O)c1
139 | 37 to 39 °C | O=C1CCCc2c(Cl)sc(Cl)c21
140 | 180 to 182 °C | CCC1(CC)NC(=O)NC1=O

Row | Structure (SMILES) | melting point
141 | CC(=O)C(C#N)c1ccc(Cl)cc1 (stereo not given) | 129 to 131 °C
142 | N#Cc1ccc([N+](=O)[O-])cc1F | 69 to 71 °C
143 | O=C(CCl)NNC(=O)C1CC1 | 185 to 187 °C
144 | N#Cc1ccc(F)c(CBr)c1 | 44 to 46 °C
145 | O=C(c1cc(Br)c(S(=O)(=O)Cl)[nH]1)C(Cl)(Cl)Cl | 144 to 146 °C
